In patent US9857375B2, “Cancer marker and utilization thereof” (PUBLIC UNIVERSITY CORPORATION NARA MEDICAL UNIVERSITY, priority 2012, dated 2018):

Columns and labels:
[1] = tested on: human urothelial cancer cell strain KU7; test: cell survival assay (MTS assay) after addition of thapsigargin; assay type: cell-based; settings: thapsigargin 0.1-2.5 μM, 72 hours after addition
Protocol: To a culture solution prepared by culturing, for 24 hours, cells transfected with RNA in the same manner as in Example 2, thapsigargin (Sigma Corporation), which is an endoplasmic reticulum stress agent, was added so that predetermined concentrations (0.1 μM, 0.5 μM, 1 μM, and 2.5 μM) were achieved.
Seventy-two hours after the addition of thapsigargin, a cell survival assay (MTS assay: with use of a kit from Promega KK) was performed to obtain the number of cells that survived, and the ratio (cell survival rate) of the number of cells that survived in the presence of thapsigargin to the number of cells that survived in the absence of thapsigargin was calculated.

[2] = tested on: human urothelial cancer cell strain KU7; test: TUNEL apoptosis detection after RNA transfection; assay type: cell-based; settings: 72 hours of culture after lipofection, versus control RNA
Protocol: Control RNA (QIAGEN) or ubiquilin 2 siRNA was introduced into human urothelial cancer cell strain KU7 (donated by the School of Urology at the Department of Medicine in Keio University). The ubiquilin 2 siRNA used was siRNA synthesized with 5′-[…]-3′ (SEQ ID NO. 3) of the ubiquilin 2 gene as a Target sequence. The introduction of each RNA was performed by a Lipofection technique with a Lipofectamine™ RNAimax (Life Technologies Japan Ltd.).
After 72 hours of culture of the cells transfected with the RNA, TUNEL positive cells (i.e. cells having undergone apoptosis) were detected under a fluorescence microscope by the TUNEL (Terminal deoxynucleotidyl transferase dUTP nick end labeling) technique, and the percentage of the TUNEL positive cells to the total number of cells was calculated.

| Compound | cytotoxicity (cell survival rate) ([1]; KU7 cells transfected with control RNA (ubiquilin 2 gene not knocked down)) | cytotoxicity (cell survival rate) ([1]; KU7 cells transfected with ubiquilin 2 siRNA (ubiquilin 2 gene knocked down)) | apoptosis (TUNEL positive cells to DAPI positive cells, apoptosis rate) [2] |
| --- | --- | --- | --- |
| C/C=C(/C)C(=O)O[C@H]1C(C)=C2[C@H]([C@@H]1OC(=O)CCCCCCC)[C@@](C)(OC(C)=O)C[C@H](OC(=O)CCC)[C@@]1(O)[C@H]2OC(=O)[C@@]1(C)O [thapsigargin] | hardly exhibits cytotoxicity | markedly enhanced cytotoxicity | – |
| ubiquilin 2 siRNA: siRNA synthesized with 5′-TCCCATAAAGAGACCCTAATA-3′ (SEQ ID NO. 3) of the ubiquilin 2 gene as a Target sequence (siRNA sequence not given here, only target site) | – | – | apoptosis (death of cells) was induced in the cancer cells |
